Patent US11419854B2, “Medicament containing pemafibrate” (KOWA COMPANY, LTD., priority 2017, dated 2022)

Assays:
[1] = literature statement; cited from earlier work
[2] = Pharmacokinetic study of pemafibrate in liver cirrhosis patients (plasma unchanged pemafibrate, LC-MS-MS); format: in vivo, human; details: for AUC0-t, ratio of geometric mean to persons with normal liver function / Cmax, ratio of geometric mean to persons with normal liver function: single oral dose 0.2 mg, fasting
Experimental: To investigate the effect of liver cirrhosis on the pharmacokinetics of pemafibrate, a clinical study was conducted on mild liver cirrhosis patients, moderate liver cirrhosis patients, fatty liver patients, and persons with normal liver function.
Subjects were classified into four groups according to the criteria in Table 2. As a result, the subjects included 8 mild liver cirrhosis patients, 6 moderate liver cirrhosis, patients, 10 fatty liver patients, and 8 persons with normal liver function.
2. Test Method (1) Administration and Measurement Subjects received a single oral dose of 0.2 mg of study drug (pemafibrate) in the fasting state (fasting for at least 10 hours).
Blood samples were collected at a total of 16 time points immediately before administration of the investigational product and 0.25, 0.5, 1, 1.5, 2, 3, 4, 6, 8, 10, 12, 16, 24, 36, and 48 hours after administration of the investigational product, and plasma concentrations of unchanged pemafibrate were measured by high performance liquid chromatography/tandem mass spectrometry (High-Performance Liquid Chromatography/Tandem Mass Spectrometry: LC-MS-MS method).
To investigate the pharmacokinetics, the pharmacokinetic parameters (maximum concentration (Cmax) and area under the concentration-time curves […] (AUC0-t) of unchanged pemafibrate were evaluated by calculating the ratio of the geometric mean values of the groups of patients with hepatic dysfunction to those with normal hepatic function and their 90% confidence intervals.

[3] = fatty liver patients (n = 10) vs normal liver function (n = 8), plasma unchanged pemafibrate
[4] = mild liver cirrhosis Child-Pugh class A (n = 8) vs normal liver function (n = 8)
[5] = moderate liver cirrhosis Child-Pugh class B (n = 6) vs normal liver function (n = 8)

Structure (SMILES)	route of excretion [1]	geometric mean values of Cmax and AUC0-t compared with the liver function normal group ([2]; fatty liver patient group)	AUC0-t, ratio of geometric mean to persons with normal liver function [2, 3]	Cmax, ratio of geometric mean to persons with normal liver function [2, 3]	AUC0-t, ratio of geometric mean to persons with normal liver function [2, 4]	Cmax, ratio of geometric mean to persons with normal liver function [2, 4]	ratio of geometric mean values of Cmax and AUC0-t, liver cirrhosis patients to persons with normal liver function ([2]; mild liver cirrhosis patients (Child-Pugh Class A))	AUC0-t, ratio of geometric mean to persons with normal liver function [2, 5]	Cmax, ratio of geometric mean to persons with normal liver function [2, 5]	ratio of geometric mean values of Cmax and AUC0-t, liver cirrhosis patients to persons with normal liver function ([2]; moderate liver cirrhosis patients (Child-Pugh Class B))
CC(C)(Oc1ccc(CCNC(=O)c2ccc(Cl)cc2)cc1)C(=O)O [bezafibrate]	excreted in the urine primarily via kidneys									
CC[C@@H](Oc1cccc(CN(CCCOc2ccc(OC)cc2)c2nc3ccccc3o2)c1)C(=O)O [pemafibrate, (2R)-2-[3-({1,3-benzoxazol-2-yl[3-(4-methoxyphenoxy)propyl]amino}methyl)phenoxy]butanoic acid]	rarely excreted via kidneys	about 1.2 times	1.194	1.198	2.076	2.329	approximately 2 fold	4.191	3.882	approximately 4 fold
